From paper PMC5218480 (PLoS ONE, 2017)

Tested on: MV-4-11 cells
Test: Gene expression microarray analysis (Affymetrix PrimeView) and GSEA
Format: cell-based, human
Set-up: RFU PODN (11730768_x_at) / Fold change /veh PODN (11730768_x_at) / RFU LINC00158 (11744669_a_at) / Fold change /veh LINC00158 (11744669_a_at) / RFU DUSP10 (11751237_a_at) / Fold change /veh DUSP10 (11751237_a_at) / RFU ID3 (11757404_x_at) / Fold change /veh ID3 (11757404_x_at) / RFU PLEKHG5 (11737974_s_at) / Fold change /veh PLEKHG5 (11737974_s_at) / RFU LRRC4B (11730491_at) / Fold change /veh LRRC4B (11730491_at) / RFU GIMAP4 (11747438_a_at) / Fold change /veh GIMAP4 (11747438_a_at) / RFU KRT8 (11758183_x_at) / Fold change /veh KRT8 (11758183_x_at) / RFU CNN1 (11734310_a_at) / Fold change /veh CNN1 (11734310_a_at) / RFU VPS37D (11726825_at) / Fold change /veh VPS37D (11726825_at) / RFU C10orf10 (11716522_x_at) / Fold change /veh C10orf10 (11716522_x_at) / RFU KIR2DL2 /// KIR2DL4 /// KIR2DL5A /// KIR2DL5B /// KIR2DS1 /// KIR2DS2 /// KIR2DS3 /// KIR2DS4 /// KIR3DL3 /// KIR3DL3 /// KIR3DS1 (11738374_at) / Fold change /veh KIR2DL2 /// KIR2DL4 /// KIR2DL5A /// KIR2DL5B /// KIR2DS1 /// KIR2DS2 /// KIR2DS3 /// KIR2DS4 /// KIR3DL3 /// KIR3DL3 /// KIR3DS1 (11738374_at) / RFU C1QL1 (11718748_at) / Fold change /veh C1QL1 (11718748_at) / RFU TMPRSS4 (11747572_a_at) / Fold change /veh TMPRSS4 (11747572_a_at) / RFU HAMP (11756126_x_at) / Fold change /veh HAMP (11756126_x_at) / RFU RNFT2 (11725882_a_at) / Fold change /veh RNFT2 (11725882_a_at) / RFU NR4A2 (11747474_a_at) / Fold change /veh NR4A2 (11747474_a_at) / RFU ABCC12 (11746883_a_at) / Fold change /veh ABCC12 (11746883_a_at) / RFU TMEM136 (11760407_x_at) / Fold change /veh TMEM136 (11760407_x_at) / RFU CLDN22 /// WWC2 (11732394_at) / Fold change /veh CLDN22 /// WWC2 (11732394_at) / RFU HLA-DPB1 (11760878_x_at) / Fold change /veh HLA-DPB1 (11760878_x_at) / RFU SPINT1 (11716480_a_at) / Fold change /veh SPINT1 (11716480_a_at) / RFU GAP43 (11754022_s_at) / Fold change /veh GAP43 (11754022_s_at) / RFU A4GNT (11735810_at) / Fold change /veh A4GNT (11735810_at) / RFU PRB3 (11715151_x_at) / Fold change /veh PRB3 (11715151_x_at) / RFU TUBB4B (11761932_at) / Fold change /veh TUBB4B (11761932_at) / RFU CAPN14 (11732068_a_at) / Fold change /veh CAPN14 (11732068_a_at) / RFU TMCC2 (11721928_a_at) / Fold change /veh TMCC2 (11721928_a_at) / RFU IRGQ (11745062_a_at) / Fold change /veh IRGQ (11745062_a_at) / RFU FAM174B (11720279_a_at) / Fold change /veh FAM174B (11720279_a_at) / RFU TMPRSS4 (11748680_a_at) / Fold change /veh TMPRSS4 (11748680_a_at) / RFU FAM212B (11763350_a_at) / Fold change /veh FAM212B (11763350_a_at) / RFU PLEKHG5 (11743358_a_at) / Fold change /veh PLEKHG5 (11743358_a_at) / RFU ZSCAN30 (11745921_a_at) / Fold change /veh ZSCAN30 (11745921_a_at) / RFU CMKLR1 (11741424_a_at) / Fold change /veh CMKLR1 (11741424_a_at) / RFU LOC101060620 /// MAPK8IP1 (11723275_at) / Fold change /veh LOC101060620 /// MAPK8IP1 (11723275_at) / RFU SPTSSB (11747773_x_at) / Fold change /veh SPTSSB (11747773_x_at) / RFU PRSS12 (11739890_at) / Fold change /veh PRSS12 (11739890_at) / RFU BIN1 (11741810_x_at) / Fold change /veh BIN1 (11741810_x_at) / RFU WNT11 (11732464_a_at) / Fold change /veh WNT11 (11732464_a_at) / RFU C10orf10 (11716521_a_at) / Fold change /veh C10orf10 (11716521_a_at) / RFU C5orf56 (11738089_at) / Fold change /veh C5orf56 (11738089_at) / RFU CYB561 (11721691_x_at) / Fold change /veh CYB561 (11721691_x_at) / RFU ANKRD19P (11752326_a_at) / Fold change /veh ANKRD19P (11752326_a_at) / RFU OR2T12 /// OR2T33 /// OR2T8 (11738714_s_at) / Fold change /veh OR2T12 /// OR2T33 /// OR2T8 (11738714_s_at) / RFU VCAN (11748164_a_at) / Fold change /veh VCAN (11748164_a_at) / RFU JSRP1 (11732532_at) / Fold change /veh JSRP1 (11732532_at) / RFU KRTAP10-11 (11738290_x_at) / Fold change /veh KRTAP10-11 (11738290_x_at) / RFU MYO3A (11730013_a_at) / Fold change /veh MYO3A (11730013_a_at) / RFU EBF3 (11725865_a_at) / Fold change /veh EBF3 (11725865_a_at) / RFU CAMK2N1 (11719241_x_at) / Fold change /veh CAMK2N1 (11719241_x_at) / RFU C5orf56 (11738088_a_at) / Fold change /veh C5orf56 (11738088_a_at) / RFU OLFML3 (11715873_a_at) / Fold change /veh OLFML3 (11715873_a_at) / RFU LOC100653217 /// NTM (11731650_a_at) / Fold change /veh LOC100653217 /// NTM (11731650_a_at) / RFU MAPK11 (11762145_a_at) / Fold change /veh MAPK11 (11762145_a_at) / RFU FIZ1 (11724087_x_at) / Fold change /veh FIZ1 (11724087_x_at) / RFU OASL (11726364_x_at) / Fold change /veh OASL (11726364_x_at) / RFU SOX15 (11748057_x_at) / Fold change /veh SOX15 (11748057_x_at) / RFU CD79A (11719716_a_at) / Fold change /veh CD79A (11719716_a_at) / RFU HIST1H1D (11736915_at) / Fold change /veh HIST1H1D (11736915_at) / RFU CASKIN2 (11723855_a_at) / Fold change /veh CASKIN2 (11723855_a_at) / RFU LOC730098 (11760151_x_at) / Fold change /veh LOC730098 (11760151_x_at) / RFU OR4N2 (11742367_at) / Fold change /veh OR4N2 (11742367_at) / RFU PRRT2 (11749266_a_at) / Fold change /veh PRRT2 (11749266_a_at) / RFU SNX32 (11753110_a_at) / Fold change /veh SNX32 (11753110_a_at) / RFU CDHR5 (11726645_a_at) / Fold change /veh CDHR5 (11726645_a_at) / RFU RCAN1 (11760418_a_at) / Fold change /veh RCAN1 (11760418_a_at) / RFU FAM167A (11723789_a_at) / Fold change /veh FAM167A (11723789_a_at) / RFU FAM26E (11764081_at) / Fold change /veh FAM26E (11764081_at) / RFU ISYNA1 (11749810_s_at) / Fold change /veh ISYNA1 (11749810_s_at) / RFU ACY1 (11761880_at) / Fold change /veh ACY1 (11761880_at) / RFU 11764098_at / Fold change /veh 11764098_at / RFU SAMD14 (11745864_x_at) / Fold change /veh SAMD14 (11745864_x_at) / RFU NPB (11741838_a_at) / Fold change /veh NPB (11741838_a_at) / RFU TMPRSS6 (11731388_a_at) / Fold change /veh TMPRSS6 (11731388_a_at) / RFU KRTAP10-2 (11738614_at) / Fold change /veh KRTAP10-2 (11738614_at) / RFU ARHGAP8 /// PRR5-ARHGAP8 (11727945_x_at) / Fold change /veh ARHGAP8 /// PRR5-ARHGAP8 (11727945_x_at) / RFU KRTAP5-7 /// NADSYN1 (11734609_at) / Fold change /veh KRTAP5-7 /// NADSYN1 (11734609_at) / RFU RASL12 (11751679_a_at) / Fold change /veh RASL12 (11751679_a_at) / RFU CDKN2B (11736163_a_at) / Fold change /veh CDKN2B (11736163_a_at) / RFU PRF1 (11729649_at) / Fold change /veh PRF1 (11729649_at) / RFU, ZNF638 /// ZNF638-IT1 / Fold change vs veh, ZNF638 /// ZNF638-IT1 / RFU, PANK3 / Fold change vs veh, PANK3 / RFU, SH3YL1 / Fold change vs veh, SH3YL1 / RFU, ZEB2 / Fold change vs veh, ZEB2 / RFU, NRIP1 / Fold change vs veh, NRIP1 / RFU, PTTG1IP / Fold change vs veh, PTTG1IP / RFU, CAPN2 / Fold change vs veh, CAPN2 / RFU, MED14 / Fold change vs veh, MED14 / RFU, SNORA58 / Fold change vs veh, SNORA58 / RFU, C1orf63 / Fold change vs veh, C1orf63 / RFU, LRRFIP1 / Fold change vs veh, LRRFIP1 / RFU, NDUFAF7 / Fold change vs veh, NDUFAF7 / RFU, SLC12A2 / Fold change vs veh, SLC12A2 / RFU, IBTK / Fold change vs veh, IBTK / RFU, ESF1 / Fold change vs veh, ESF1 / Fold change vs veh, TMEM50B / RFU, TAOK1 / Fold change vs veh, TAOK1 / RFU, ACBD3 / Fold change vs veh, ACBD3 / RFU, TMA16 / Fold change vs veh, TMA16 / RFU, RWDD3 / Fold change vs veh, RWDD3 / RFU, BCAT1 / Fold change vs veh, BCAT1 / RFU, EDEM3 / Fold change vs veh, EDEM3 / RFU, TMEM33 / Fold change vs veh, TMEM33 / RFU, WDR75 / Fold change vs veh, WDR75 / RFU, AHCTF1 / Fold change vs veh, AHCTF1 / RFU, TFRC / Fold change vs veh, TFRC / RFU, ZDHHC17 / Fold change vs veh, ZDHHC17 / RFU, NOM1 / Fold change vs veh, NOM1 / RFU, ARL8B / Fold change vs veh, ARL8B / RFU, ZBTB11 / Fold change vs veh, ZBTB11 / RFU, TAMM41 / Fold change vs veh, TAMM41 / RFU, KIAA1704 /// LOC100996395 / Fold change vs veh, KIAA1704 /// LOC100996395 / RFU, ING1 / Fold change vs veh, ING1 / RFU, TRMT61B / Fold change vs veh, TRMT61B / RFU, FUBP3 / Fold change vs veh, FUBP3 / RFU, TP53 / Fold change vs veh, TP53 / RFU, TNKS2 / Fold change vs veh, TNKS2 / RFU, ZFP14 / Fold change vs veh, ZFP14 / RFU, ACTR2 / Fold change vs veh, ACTR2 / RFU, PPP3R1 / Fold change vs veh, PPP3R1 / RFU, PIK3R1 / Fold change vs veh, PIK3R1 / RFU, HNRNPA1 / Fold change vs veh, HNRNPA1 / RFU, RNF170 / Fold change vs veh, RNF170 / RFU, ZNF28 / Fold change vs veh, ZNF28 / RFU, RNGTT / Fold change vs veh, RNGTT / RFU, OGT / Fold change vs veh, OGT / RFU, BRD1 / Fold change vs veh, BRD1 / RFU, MARS / Fold change vs veh, MARS / RFU, ZNF655 / Fold change vs veh, ZNF655 / RFU, FAHD1 / Fold change vs veh, FAHD1 / RFU, BDP1 / Fold change vs veh, BDP1 / RFU, LRRCC1 / Fold change vs veh, LRRCC1 / RFU, ARID1A / Fold change vs veh, ARID1A / RFU, ZNF146 / Fold change vs veh, ZNF146 / RFU, ZNF330 / Fold change vs veh, ZNF330 / RFU, GPN3 / Fold change vs veh, GPN3 / RFU, C9orf123 / Fold change vs veh, C9orf123 / RFU, N4BP2L2 / Fold change vs veh, N4BP2L2 / RFU, ARFIP1 / Fold change vs veh, ARFIP1 / RFU, FAM179B / Fold change vs veh, FAM179B / RFU, BCL10 / Fold change vs veh, BCL10 / RFU, UHRF1BP1L / Fold change vs veh, UHRF1BP1L / RFU, BET1 / Fold change vs veh, BET1 / RFU, CNOT2 / Fold change vs veh, CNOT2 / RFU, ZNF268 / Fold change vs veh, ZNF268 / Fold change vs veh, ZNF507 / RFU, DGCR2 / Fold change vs veh, DGCR2 / RFU, WDSUB1 / Fold change vs veh, WDSUB1 / Fold change vs veh, HSP90B1 /// MIR3652 / RFU, ADSS / Fold change vs veh, ADSS / RFU, GK / Fold change vs veh, GK / RFU, ZNF148 / Fold change vs veh, ZNF148 / RFU, TAF9 / Fold change vs veh, TAF9 / RFU, SLC1A5 / Fold change vs veh, SLC1A5 / RFU, SLMO2 / Fold change vs veh, SLMO2 / RFU, ABCC4 / Fold change vs veh, ABCC4 / RFU, LOC101060439 /// RAP1B / Fold change vs veh, LOC101060439 /// RAP1B / RFU, RFX7 / Fold change vs veh, RFX7 / RFU, GTPBP10 / Fold change vs veh, GTPBP10 / RFU, CNEP1R1 / Fold change vs veh, CNEP1R1 / RFU, BIVM-ERCC5 /// ERCC5 / Fold change vs veh, BIVM-ERCC5 /// ERCC5 / RFU, ILF3 / Fold change vs veh, ILF3 / RFU 11762660_at / Fold change /veh 11762660_at / RFU VCAN (11757783_s_at) / Fold change /veh VCAN (11757783_s_at) / RFU DDX43 (11728927_at) / Fold change /veh DDX43 (11728927_at) / RFU KRT8 (11758188_x_at) / Fold change /veh KRT8 (11758188_x_at) / RFU NKD1 (11759106_at) / Fold change /veh NKD1 (11759106_at) / RFU SRD5A1 (11742802_a_at) / Fold change /veh SRD5A1 (11742802_a_at) / RFU TPSAB1 /// TPSB2 (11721975_s_at) / Fold change /veh TPSAB1 /// TPSB2 (11721975_s_at) / RFU GSTM3 (11746129_a_at) / Fold change /veh GSTM3 (11746129_a_at) / RFU IL23R (11737362_x_at) / Fold change /veh IL23R (11737362_x_at) / RFU TMEM51 (11727254_a_at) / Fold change /veh TMEM51 (11727254_a_at) / RFU PIWIL2 (11732686_x_at) / Fold change /veh PIWIL2 (11732686_x_at) / RFU ORM1 (11744905_x_at) / Fold change /veh ORM1 (11744905_x_at) / RFU CCDC152 (11743942_at) / Fold change /veh CCDC152 (11743942_at) / RFU ECM1 (11717891_a_at) / Fold change /veh ECM1 (11717891_a_at) / RFU IL23R (11748794_a_at) / Fold change /veh IL23R (11748794_a_at) / RFU TNFAIP8L3 (11732012_x_at) / Fold change /veh TNFAIP8L3 (11732012_x_at) / RFU MBOAT4 (11741988_at) / Fold change /veh MBOAT4 (11741988_at) / RFU 11764193_at / Fold change /veh 11764193_at / RFU TMEM53 (11763286_at) / Fold change /veh TMEM53 (11763286_at) / RFU MAGEB2 (11727129_at) / Fold change /veh MAGEB2 (11727129_at) / RFU TMEM200A (11744735_a_at) / Fold change /veh TMEM200A (11744735_a_at) / RFU CCDC152 (11751479_a_at) / Fold change /veh CCDC152 (11751479_a_at) / RFU FAM211A (11726209_a_at) / Fold change /veh FAM211A (11726209_a_at) / RFU RGS16 (11746705_a_at) / Fold change /veh RGS16 (11746705_a_at) / RFU VCAN (11755009_s_at) / Fold change /veh VCAN (11755009_s_at) / RFU RHOB (11743442_s_at) / Fold change /veh RHOB (11743442_s_at) / RFU RGS16 (11720943_a_at) / Fold change /veh RGS16 (11720943_a_at) / RFU RGS16 (11720944_at) / Fold change /veh RGS16 (11720944_at) / RFU, VPS4B / Fold change vs veh, VPS4B / RFU, CREB1 / Fold change vs veh, CREB1 / RFU, DNAJC13 / Fold change vs veh, DNAJC13 / RFU, GNAQ / Fold change vs veh, GNAQ / RFU, CDK5R1 / Fold change vs veh, CDK5R1 / RFU, ZRANB3 / Fold change vs veh, ZRANB3 / RFU, CUL4A / Fold change vs veh, CUL4A / RFU, CCNY / Fold change vs veh, CCNY / RFU, UFL1 / Fold change vs veh, UFL1 / RFU, COG3 / Fold change vs veh, COG3 / RFU, DIAPH2 / Fold change vs veh, DIAPH2 / RFU, SKA2 / Fold change vs veh, SKA2 / RFU, AFF3 / Fold change vs veh, AFF3 / RFU, LMF1 / Fold change vs veh, LMF1 / RFU, IPO11 / Fold change vs veh, IPO11 / RFU, DFFB / Fold change vs veh, DFFB / RFU, FOXP1 / Fold change vs veh, FOXP1 / RFU, CARD8 / Fold change vs veh, CARD8 / RFU, STRN3 / Fold change vs veh, STRN3 / RFU, ADK / Fold change vs veh, ADK / RFU, RASSF2 / Fold change vs veh, RASSF2 / RFU, WIPF1 / Fold change vs veh, WIPF1 / RFU, LARP1B / Fold change vs veh, LARP1B / RFU, RASA1 / Fold change vs veh, RASA1 / RFU, RB1 / Fold change vs veh, RB1 / RFU, PPFIA1 / Fold change vs veh, PPFIA1 / RFU, MAT2A / Fold change vs veh, MAT2A / RFU, CCT5 / Fold change vs veh, CCT5 / RFU, WDR92 / Fold change vs veh, WDR92 / RFU, CUX1 / Fold change vs veh, CUX1 / RFU, TTC7A / Fold change vs veh, TTC7A / RFU, TMEM135 / Fold change vs veh, TMEM135 / RFU, DEPTOR / Fold change vs veh, DEPTOR / RFU, CPM / Fold change vs veh, CPM / RFU, DNAJB6 / Fold change vs veh, DNAJB6 / RFU, CACNA2D3 / Fold change vs veh, CACNA2D3 / RFU, DTX4 / Fold change vs veh, DTX4 / RFU, TFCP2 / Fold change vs veh, TFCP2 / RFU, GMCL1 /// GMCL1P1 / Fold change vs veh, GMCL1 /// GMCL1P1 / RFU, AEBP2 / Fold change vs veh, AEBP2 / RFU, SNHG1 /// SNORD22 /// SNORD25 /// SNORD26 /// SNORD27 /// SNORD28 /// SNORD29 /// SNORD31 / Fold change vs veh, SNHG1 /// SNORD22 /// SNORD25 /// SNORD26 /// SNORD27 /// SNORD28 /// SNORD29 /// SNORD31 / Fold change (Aza/veh), C12orf56 (ProbeSet 11735607_a_at) / Fold change (ACY-1035/veh), C12orf56 (ProbeSet 11735607_a_at) / Fold change (Aza/veh), FGFR1OP (ProbeSet 11751329_s_at) / Fold change (ACY-1035/veh), FGFR1OP (ProbeSet 11751329_s_at) / Fold change (Aza/veh), VPS36 (ProbeSet 11739960_a_at) / Fold change (ACY-1035/veh), VPS36 (ProbeSet 11739960_a_at) / RFU SYPL1 (11715823_x_at) / Fold change /veh SYPL1 (11715823_x_at) / RFU IGFBP7 (11715501_s_at) / Fold change /veh IGFBP7 (11715501_s_at) / RFU REEP3 (11722064_at) / Fold change /veh REEP3 (11722064_at) / RFU IGLL1 (11728026_x_at) / Fold change /veh IGLL1 (11728026_x_at): dose or concentration left out as unconfirmed
Conditions: MV-4-11 cells, 48 hours

## Nc1ncn([C@@H]2O[C@H](CO)[C@@H](O)[C@H]2O)c(=O)n1 [azacitidine]
  RFU TMEM136 (11760407_x_at): 16.07 RFU
